Patent publication US20130012432A1, “Peptides for Treatment of Obesity” (Novo Nordisk A/S, priority 2010, published 2013)
pKi: −log10 of the molar value. ≈ marks a conversion by molar mass, not a printed value. Positions of bridges follow the written chain, without caps; N, C: chain ends. Non-standard residues stand in square brackets, D forms with d. Residues, ends and D or L forms follow the SMILES beside them. Groups on a side chain read outwards from the residue. *: point of attachment. Palmitoyl(16-(5-tetrazolyl)) = O=C(CCCCCCCCCCCCCCCc1nnn[nH]1)*; Lys(CH2CO2H)2 = N[C@@H](CCCCN(CC(=O)O)CC(=O)O)C(=O)O; C17 diacid = O=C(O)CCCCCCCCCCCCCCCC(=O)*; C16 diacid = O=C(O)CCCCCCCCCCCCCCC(=O)*; Hyp = O=C(O)[C@@H]1C[C@@H](O)CN1; hCys = N[C@@H](CCS)C(=O)O; Orn = NCCC[C@H](N)C(=O)O; Dab = NCC[C@H](N)C(=O)O; Dap = NC[C@H](N)C(=O)O; AEEA = NCCOCCOCC(=O)O

Assays:
human MC4 receptor = human MC4 receptor (Homo sapiens, UniProt P32245); assay: biochemical
Experimental: Assay (V)—Melanocortin Receptor 4 (MC4) Binding Assay
In Vitro ^125NDP-α-MSH Binding to Recombinant BHK Cells Expressing Human MC4 Receptor (Filtration Assay).
The assay was performed in 5 ml minisorb vials (Sarstedt No. 55.526) or in 96-well filter-plates (Millipore MADVN 6550), and using BHK cells expressing the human MC4 receptor using BHK cells stably expressing the human MC4 receptor. The membranes were prepared from frozen or fresh cells that were homogenized in 20 mM HEPES pH 7.1, 5 mM MgCl2 and 1 mg/ml bacitracin and centrifuged at 15000 rpm at 4° C., 10 min in a Sorvall RC 5B plus, SS-34 rotor. The supernatant was discarded, and the pellets were re-suspended in buffer, homogenized and centrifuged two more times. The final pellets were resuspended in the buffer mentioned above, and the protein concentration was measured and adjusted with buffer to 14 to 17 mg/ml and the membrane preparation were kept at −80° C. until assay. The assay was run directly on a dilution of this cell membrane suspension, without any further preparation. The BHK cell membranes are kept at −80° C. until assay, and the assay is run directly on a dilution of this cell membrane suspension, without further preparation. The suspension is diluted to give maximally 10% specific binding, i.e. to approx. 50-100 fold dilution. The assay was performed in a total volume of 200 μl: 50 μl of cell suspension, 50 μl of ^125NDP-α-MSH (≈79 pM in final concentration), 50 μl of test compound and 50 μl binding buffer (pH 7) mixed and incubated for 2 h at 25° C. [binding buffer: 25 mM HEPES, pH 7.0, 1 mM CaCl2, 1 mM MgSO4, 1 mM EGTA, 0.02% Bacitracin, 0.005% Tween™ 20 and 0.1% HSA or, alternatively, 0.1% ovalbumin (Sigma; catalogue No. A-5503)]. Test compounds were dissolved in DMSO and diluted in binding buffer. Radiolabelled ligand and membranes were diluted in binding buffer. The incubation was stopped by dilution with 2×100 μl ice-cold 0.9% NaCl. The radioactivity retained on the filters was counted using a Cobra II auto gamma counter.
The data were analysed by non-linear regression analysis of binding curves, using the Windows™ program GraphPad™ Prism (GraphPad Software, USA).

MC1 receptor = MC1 receptor (Homo sapiens, UniProt Q01726); assay: biochemical
Outline: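 Compounds competed against 125I-NDP-α-MSH (22 pM final) for binding to stably MC1-expressing BHK cell membranes, 30 °C for 90 min in HEPES pH 7.4 buffer with 0.1% HSA or ovalbumin. Bound ligand collected by filtration and counted; binding curves analysed by non-linear regression.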

physchem = assay: physchem
Experimental: From a stock solution in vehicle, either H2O or 10 mM phosphate, containing 1 mg (as weighed) compound per ml, 8-11 aliquots are withdrawn and pH-adjusted individually with HCl/NaOH, to cover the whole pH range.

Chain of human MC4 receptor (P32245 whole entry): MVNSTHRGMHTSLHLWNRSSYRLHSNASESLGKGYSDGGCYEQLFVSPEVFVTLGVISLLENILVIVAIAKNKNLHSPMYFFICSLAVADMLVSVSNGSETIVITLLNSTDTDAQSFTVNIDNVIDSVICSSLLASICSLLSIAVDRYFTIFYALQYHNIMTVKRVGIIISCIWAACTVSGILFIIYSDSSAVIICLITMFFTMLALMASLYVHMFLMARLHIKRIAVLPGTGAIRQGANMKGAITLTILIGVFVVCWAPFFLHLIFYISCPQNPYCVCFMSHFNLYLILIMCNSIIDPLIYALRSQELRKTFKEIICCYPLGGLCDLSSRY
Chain of MC1 receptor (Q01726 whole entry): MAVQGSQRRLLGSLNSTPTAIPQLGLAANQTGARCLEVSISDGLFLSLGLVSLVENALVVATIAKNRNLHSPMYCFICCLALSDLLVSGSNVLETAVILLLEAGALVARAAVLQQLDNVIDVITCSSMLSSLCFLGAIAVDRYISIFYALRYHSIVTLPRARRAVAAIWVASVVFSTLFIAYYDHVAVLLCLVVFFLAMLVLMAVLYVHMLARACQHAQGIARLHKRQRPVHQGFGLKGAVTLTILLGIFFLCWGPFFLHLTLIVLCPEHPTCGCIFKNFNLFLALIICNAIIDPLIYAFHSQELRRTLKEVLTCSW

Row | SMILES | pKi (human MC4 receptor) | pKi (MC1 receptor) | solubility (physchem; pH 6.1, Solubility Conc.) [µM] | solubility (physchem; pH 6.7, Solubility Conc.) [µM] | solubility (physchem; pH 7.1, Solubility Conc.) [µM] | solubility (physchem; pH 7.3, Solubility Conc.) [µM] | solubility (physchem; pH 7.7, Solubility Conc.) [µM] | solubility (physchem; pH 7.8, Solubility Conc.) [µM] | solubility (physchem; pH 6.9, Solubility Conc.) [µM] | solubility (physchem; pH 7.2, Solubility Conc.) [µM] | solubility (physchem; pH 7.4, Solubility Conc.) [µM] | solubility (physchem; pH 7.5, Solubility Conc.) [µM] | solubility (physchem; pH 7.6, Solubility Conc.) [µM] | solubility (physchem; pH 8.1, Solubility Conc.) [µM] | solubility (physchem; pH 6.6, Solubility Conc.) [µM] | solubility (physchem; pH 7.9, Solubility Conc.) [µM] | solubility (physchem; pH 8, Solubility Conc.) [µM] | further results
1 | CC(=O)N[C@H]1CCSSC[C@@H](C(=O)N2CCC[C@H]2C(=O)N2CCC[C@H]2C(=O)N[C@@H](CCCCN)C(=O)N[C@@H](CCC(=O)O)C(=O)N[C@@H](CCCCN(CC(=O)O)CC(=O)O)C(=O)N[C@@H](CCCCNC(=O)COCCOCCNC(=O)CCCCCCCCCCCCCCC(=O)O)C(N)=O)NC(=O)[C@H](Cc2c[nH]c3ccccc23)NC(=O)[C@H](CCCNC(=N)N)NC(=O)[C@@H](Cc2ccccc2)NC(=O)[C@H](Cc2c[nH]cn2)NC1=O [Example 5, Ac-c[homoCys-His-D-Phe-Arg-Trp-Cys]-Pro-Pro-Lys-Glu-Lys(biscarboxymethyl)-Lys({2-[2-(15-carboxypentadecanoylamino)ethoxy]ethoxy}acetyl)-NH2] (Ac-[hCys]H[dF]RWCPPKE[Lys(CH2CO2H)2]K([AEEA-C16 diacid])-NH2; disulfide 1-6) | 7.77 | < 5.00 | 200 (≈ 428 µg/mL) | 320 (≈ 685 µg/mL) | 489 (≈ 1050 µg/mL) | 496 (≈ 1060 µg/mL) | 498 (≈ 1070 µg/mL) | 509 (≈ 1090 µg/mL) | – | – | – | – | – | – | – | – | – | solubility (physchem; pH 3.8, Solubility Conc.): 486 µM (≈ 1040 µg/mL); solubility (physchem; pH 4.6, Solubility Conc.): 452 µM (≈ 968 µg/mL); solubility (physchem; pH 4.9, Solubility Conc.): 233 µM (≈ 499 µg/mL)
2 | CC(=O)N[C@H]1CCC(=O)NC[C@@H](C(=O)N2CCC[C@H]2C(=O)N2CCC[C@H]2C(=O)N[C@@H](CCCNC(=N)N)C(=O)N[C@@H](CC(=O)O)C(=O)N[C@@H](CCCCN(CC(=O)O)CC(=O)O)C(=O)N[C@@H](CCCCNC(=O)COCCOCCNC(=O)CCCCCCCCCCCCCCCc2nnn[nH]2)C(N)=O)NC(=O)[C@H](Cc2c[nH]c3ccccc23)NC(=O)[C@H](CCCNC(=N)N)NC(=O)[C@@H](Cc2ccccc2)NC(=O)[C@H](Cc2c[nH]cn2)NC1=O [Example 6, Ac-c[Glu-His-D-Phe-Arg-Trp-Dap]-Pro-Pro-Arg-Asp-Lys(biscarboxymethyl)-Lys[(2-{2-[16-(tetrazol-5-yl)hexadecanoylamino]ethoxy}ethoxy)acetyl]-NH2] (Ac-EH[dF]RW[Dap]PPRD[Lys(CH2CO2H)2]K([AEEA-Palmitoyl(16-(5-tetrazolyl))])-NH2; lactam 1-6) | 7.89 | < 5.00 | – | – | – | – | – | 254 (≈ 552 µg/mL) | 44 (≈ 95.6 µg/mL) | 82 (≈ 178 µg/mL) | 208 (≈ 452 µg/mL) | 270 (≈ 587 µg/mL) | 290 (≈ 630 µg/mL) | 280 (≈ 608 µg/mL) | – | – | – | solubility (physchem; pH 5.9, Solubility Conc.): 23 µM (≈ 50 µg/mL); solubility (physchem; pH 6.3, Solubility Conc.): 24 µM (≈ 52.1 µg/mL)
3 | CC(=O)N[C@H]1CCNC(=O)CC[C@@H](C(=O)N2CCC[C@H]2C(=O)N2CCC[C@H]2C(=O)N[C@@H](CCCNC(=N)N)C(=O)N[C@@H](CC(=O)O)C(=O)N[C@@H](CCCCN(CC(=O)O)CC(=O)O)C(=O)N[C@@H](CCCCNC(=O)COCCOCCNC(=O)CCCCCCCCCCCCCCCc2nnn[nH]2)C(N)=O)NC(=O)[C@H](Cc2c[nH]c3ccccc23)NC(=O)[C@H](CCCNC(=N)N)NC(=O)[C@@H](Cc2ccccc2)NC(=O)[C@H](Cc2c[nH]cn2)NC1=O [Example 23, Ac-c[Dab-His-D-Phe-Arg-Trp-Glu]-Pro-Pro-Arg-Asp-Lys(biscarboxymethyl)-Lys[(2-{2-[16-(tetrazol-5-yl)hexadecanoylamino]ethoxy}ethoxy)acetyl]-NH2] (Ac-[Dab]H[dF]RWEPPRD[Lys(CH2CO2H)2]K([AEEA-Palmitoyl(16-(5-tetrazolyl))])-NH2; lactam 1-6) | 6.97 | < 5.00 | 34 (≈ 74.3 µg/mL) | – | – | – | 295 (≈ 645 µg/mL) | – | 45 (≈ 98.4 µg/mL) | 76 (≈ 166 µg/mL) | 145 (≈ 317 µg/mL) | – | 229 (≈ 501 µg/mL) | – | 38 (≈ 83.1 µg/mL) | 300 (≈ 656 µg/mL) | – | solubility (physchem; pH 4.7, Solubility Conc.): 73 µM (≈ 160 µg/mL)
4 | CC(=O)N[C@H]1CCC(=O)NC[C@@H](C(=O)N2C[C@H](O)C[C@H]2C(=O)N2C[C@H](O)C[C@H]2C(=O)N[C@@H](CCCNC(=N)N)C(=O)N[C@@H](CC(=O)O)C(=O)N[C@@H](CCCCN(CC(=O)O)CC(=O)O)C(=O)N[C@@H](CCCCNC(=O)COCCOCCNC(=O)CCCCCCCCCCCCCCCc2nnn[nH]2)C(N)=O)NC(=O)[C@H](Cc2c[nH]c3ccccc23)NC(=O)[C@H](CCCNC(=N)N)NC(=O)[C@@H](Cc2ccccc2)NC(=O)[C@H](Cc2c[nH]cn2)NC1=O [Example 31, Ac-c[Glu-His-D-Phe-Arg-Trp-Dap]-Hyp-Hyp-Arg-Asp-Lys(biscarboxymethyl)-Lys[(2-{2-[16-(tetrazol-5-yl)hexadecanoylamino]ethoxy}ethoxy)acetyl]-NH2] (Ac-EH[dF]RW[Dap][Hyp][Hyp]RD[Lys(CH2CO2H)2]K([AEEA-Palmitoyl(16-(5-tetrazolyl))])-NH2; lactam 1-6) | 7.77 | < 5.00 | – | – | – | 96 (≈ 212 µg/mL) | 495 (≈ 1090 µg/mL) | – | 61 (≈ 134 µg/mL) | – | 228 (≈ 503 µg/mL) | 440 (≈ 970 µg/mL) | – | 472 (≈ 1040 µg/mL) | 36 (≈ 79.4 µg/mL) | 529 (≈ 1170 µg/mL) | – | –
5 | CC(=O)N[C@H]1CCCNC(=O)CC[C@@H](C(=O)N2CCC[C@H]2C(=O)N[C@@H](CO)C(=O)N[C@@H](CO)C(=O)N[C@@H](CO)C(=O)N[C@@H](CCC(=O)O)C(=O)N[C@@H](CCC(=O)O)C(=O)N[C@@H](CO)C(=O)N[C@@H](CO)C(=O)N[C@@H](CCCCNC(=O)COCCOCCNC(=O)CCCCCCCCCCCCCCCC(=O)O)C(N)=O)NC(=O)[C@H](Cc2c[nH]c3ccccc23)NC(=O)[C@H](CCCNC(=N)N)NC(=O)[C@@H](Cc2ccccc2)NC(=O)[C@H](Cc2c[nH]cn2)NC1=O [Example 39] (Ac-[Orn]H[dF]RWEPSSSEESSK([AEEA-C17 diacid])-NH2; lactam 1-6) | 7.60 | < 5.00 | 272 (≈ 614 µg/mL) | – | 419 (≈ 946 µg/mL) | – | 426 (≈ 962 µg/mL) | – | 397 (≈ 896 µg/mL) | – | 448 (≈ 1010 µg/mL) | – | – | – | 403 (≈ 910 µg/mL) | – | 397 (≈ 896 µg/mL) | solubility (physchem; pH 8.3, Solubility Conc.): 445 µM (≈ 1000 µg/mL)
6 | CC(=O)N[C@H]1CCCCNC(=O)C[C@@H](C(=O)N2CCC[C@H]2C(=O)N2CCC[C@H]2C(=O)N[C@@H](Cc2c[nH]cn2)C(=O)N[C@@H](CCC(=O)O)C(=O)N[C@@H](CCCCN(CC(=O)O)CC(=O)O)C(=O)N[C@@H](CCCCNC(=O)COCCOCCNC(=O)CCCCCCCCCCCCCCCC(=O)O)C(N)=O)NC(=O)[C@H](Cc2c[nH]c3ccccc23)NC(=O)[C@H](CCCNC(=N)N)NC(=O)[C@@H](Cc2ccccc2)NC(=O)[C@H](Cc2c[nH]cn2)NC1=O [Example 44, Ac-c[Lys-His-D-Phe-Arg-Trp-Asp]-Pro-Pro-His-Glu-Lys(biscarboxymethyl)-Lys({2-[2-(16-carboxyhexadecanoylamino)ethoxy]ethoxy}acetyl)-NH2] (Ac-KH[dF]RWDPPHE[Lys(CH2CO2H)2]K([AEEA-C17 diacid])-NH2; lactam 1-6) | 7.77 | < 5.00 | – | 364 (≈ 790 µg/mL) | – | 412 (≈ 895 µg/mL) | – | 429 (≈ 932 µg/mL) | – | – | – | – | 407 (≈ 884 µg/mL) | – | – | – | 408 (≈ 886 µg/mL) | solubility (physchem; pH 6.5, Solubility Conc.): 227 µM (≈ 493 µg/mL); solubility (physchem; pH 6.8, Solubility Conc.): 407 µM (≈ 884 µg/mL); solubility (physchem; pH 7, Solubility Conc.): 430 µM (≈ 934 µg/mL); solubility (physchem; pH 8.2, Solubility Conc.): 430 µM (≈ 934 µg/mL)
